The source of these data is PMC2874658 (Bioorganic & medicinal chemistry letters, 2010).

Experiment [1] deals with PKM2 (Homo sapiens, UniProt P14618). The experiment is described as follows: steady-state kinetics of PEP and ADP in the PK-LDH coupled assay. It counts as biochemical.
In experiment [2] the target is hPK, M2 (PKM2) (Homo sapiens, UniProt P14618). The experiment is described as follows: luminescent pyruvate kinase-luciferase coupled assay. As to conditions: for activation at 57 µM: read-out: hPK, M2 Max. Res, % activation at 57 μM of compound, luciferase coupled assay; for potency (in words): PKM2 activation, SAR statement. It is filed as biochemical.
Chain of hPK, M2 (PKM2) (P14618 whole entry): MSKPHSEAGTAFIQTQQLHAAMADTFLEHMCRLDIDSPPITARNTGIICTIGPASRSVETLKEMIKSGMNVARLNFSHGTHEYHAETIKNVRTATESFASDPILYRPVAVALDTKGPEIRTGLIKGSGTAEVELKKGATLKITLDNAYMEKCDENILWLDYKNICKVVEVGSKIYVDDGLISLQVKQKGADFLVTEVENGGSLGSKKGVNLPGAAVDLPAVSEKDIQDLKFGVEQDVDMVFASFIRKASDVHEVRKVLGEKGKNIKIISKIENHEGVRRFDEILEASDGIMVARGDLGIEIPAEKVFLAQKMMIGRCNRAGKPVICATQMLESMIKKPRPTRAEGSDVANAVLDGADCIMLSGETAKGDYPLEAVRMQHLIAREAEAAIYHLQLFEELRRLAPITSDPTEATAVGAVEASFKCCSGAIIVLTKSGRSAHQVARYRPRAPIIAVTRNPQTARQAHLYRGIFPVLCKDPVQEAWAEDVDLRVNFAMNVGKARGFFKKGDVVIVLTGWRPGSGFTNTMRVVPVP

Chain of PKM2 (P14618 whole entry): as above

Turning to `Cc1cc2c(s1)c1cnn(Cc3ccccc3F)c(=O)c1n2C` [compound 1], the “decrease of KM for PEP” value in experiment [1] (in the presence of activator versus absence (KM ~ 1.5 mM)) was determined as 10 fold. In experiment [1] (with or without activator), the Vmax is 255 pmols/min. For `Cc1cc2[nH]c3c(=O)n(Cc4ccccc4F)ncc3c2s1` [compound 19], the activation at 57 µM in experiment [2] came out at 33%. Regarding `Cn1c2ccsc2c2ncn(Cc3ccccc3F)c(=O)c21` [compound 23], in experiment [2], the activation at 57 µM is below 80%. For the molecule `Cc1cc2c(s1)c1cnn(-c3ccccc3)c(=O)c1n2C` [compound 24], the “potency (in words)” value in experiment [2] is “marked loss of potency”. Take `CCCCCn1ncc2c3sc(C)cc3n(C)c2c1=O` [compound 25]: the “potency (in words)” value in experiment [2] was “marked loss of potency”.
